Assay results from ChEMBL document CHEMBL1909046, “DrugMatrix in vitro pharmacology data”.
pIC50, pKi: −log10 of the molar value.

Columns and labels:
[1] = target: T1, Muscarinic acetylcholine receptor M2 (Homo sapiens, UniProt P08172); assay type: cell membranes, CHO-K1, Membrane; conditions: cho-k1; further: in other assays of this panel Not Active means under 50% inhibition at 10 µM
T1 sequence (P08172 whole entry): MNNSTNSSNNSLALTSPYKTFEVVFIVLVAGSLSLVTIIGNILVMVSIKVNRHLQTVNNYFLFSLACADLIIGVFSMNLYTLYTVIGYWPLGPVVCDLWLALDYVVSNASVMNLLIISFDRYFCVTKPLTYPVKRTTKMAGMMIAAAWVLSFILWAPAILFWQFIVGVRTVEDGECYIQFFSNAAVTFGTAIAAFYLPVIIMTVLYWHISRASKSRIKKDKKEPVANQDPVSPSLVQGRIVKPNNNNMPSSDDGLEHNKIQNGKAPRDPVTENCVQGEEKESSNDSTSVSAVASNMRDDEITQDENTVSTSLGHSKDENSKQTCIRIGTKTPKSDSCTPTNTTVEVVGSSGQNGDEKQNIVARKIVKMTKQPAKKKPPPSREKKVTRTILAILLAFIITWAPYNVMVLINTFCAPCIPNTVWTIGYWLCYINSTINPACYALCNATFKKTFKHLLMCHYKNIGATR

[2] = target: T2, Cholecystokinin receptor type A (Homo sapiens, UniProt P32238); assay type: cell membranes, Membrane; conditions: 1321-n1; further: in other assays of this panel Not Active means under 50% inhibition at 10 µM
T2 sequence (P32238 whole entry): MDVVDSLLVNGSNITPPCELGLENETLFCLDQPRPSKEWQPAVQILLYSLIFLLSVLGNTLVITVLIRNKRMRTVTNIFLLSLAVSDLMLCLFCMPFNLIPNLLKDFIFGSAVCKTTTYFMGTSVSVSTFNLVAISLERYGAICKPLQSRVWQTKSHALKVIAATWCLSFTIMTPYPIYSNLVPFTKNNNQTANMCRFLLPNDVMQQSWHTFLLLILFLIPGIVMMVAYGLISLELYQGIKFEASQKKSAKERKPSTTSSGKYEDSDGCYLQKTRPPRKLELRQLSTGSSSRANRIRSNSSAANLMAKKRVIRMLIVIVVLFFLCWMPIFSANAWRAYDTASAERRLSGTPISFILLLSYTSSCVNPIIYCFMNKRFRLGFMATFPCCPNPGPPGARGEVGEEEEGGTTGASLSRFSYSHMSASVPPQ

[3] = DRUGMATRIX: Leukotriene, BLT (LTB4) radioligand binding (ligand: [3H]LTB4); assay type: cell membranes, Membrane; conditions: u-937; Not Active = under 50% inhibition at 10 µM
[4] = target: Kappa-type opioid receptor (Homo sapiens, UniProt P41145); experiment: DRUGMATRIX: Opiate kappa (OP2, KOP) radioligand binding (ligand: [3H] Diprenorphine); assay type: cell membranes, HEK293, Membrane; conditions: hek293; Not Active = under 50% inhibition at 10 µM
[5] = target: T3, Alpha-1D adrenergic receptor (Homo sapiens, UniProt P25100); assay type: cell membranes, HEK293, Membrane; conditions: for IC50: hek293; on all read-outs here: in other assays of this panel Not Active means under 50% inhibition at 10 µM
T3 sequence (P25100 whole entry): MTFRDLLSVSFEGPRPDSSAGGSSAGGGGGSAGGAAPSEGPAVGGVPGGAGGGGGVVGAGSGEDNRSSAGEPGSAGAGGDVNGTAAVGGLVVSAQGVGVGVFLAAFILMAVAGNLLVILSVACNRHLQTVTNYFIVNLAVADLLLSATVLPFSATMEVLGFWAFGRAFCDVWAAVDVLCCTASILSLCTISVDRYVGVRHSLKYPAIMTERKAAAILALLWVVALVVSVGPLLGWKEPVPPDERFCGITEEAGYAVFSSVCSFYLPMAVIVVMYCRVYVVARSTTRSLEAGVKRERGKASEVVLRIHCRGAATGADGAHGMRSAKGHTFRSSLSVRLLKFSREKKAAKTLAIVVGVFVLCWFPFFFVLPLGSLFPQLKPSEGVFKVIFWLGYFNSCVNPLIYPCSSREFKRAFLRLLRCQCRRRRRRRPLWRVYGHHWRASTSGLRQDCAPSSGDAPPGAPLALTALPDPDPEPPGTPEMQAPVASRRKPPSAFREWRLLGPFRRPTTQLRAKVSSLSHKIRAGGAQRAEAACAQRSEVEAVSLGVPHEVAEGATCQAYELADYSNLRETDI

Mu-type opioid receptor = Mu-type opioid receptor (Homo sapiens, UniProt P35372); experiment: DRUGMATRIX: Opiate mu (OP3, MOP) radioligand binding (ligand: [3H] Diprenorphine); assay type: cell membranes, CHO-K1, Membrane; conditions: cho-k1; Not Active = under 50% inhibition at 10 µM
B2 bradykinin receptor = target: T4, B2 bradykinin receptor (Homo sapiens, UniProt P30411); assay type: cell membranes, Membrane; conditions: chem-1; further: in other assays of this panel Not Active means under 50% inhibition at 10 µM
T4 sequence (P30411 whole entry): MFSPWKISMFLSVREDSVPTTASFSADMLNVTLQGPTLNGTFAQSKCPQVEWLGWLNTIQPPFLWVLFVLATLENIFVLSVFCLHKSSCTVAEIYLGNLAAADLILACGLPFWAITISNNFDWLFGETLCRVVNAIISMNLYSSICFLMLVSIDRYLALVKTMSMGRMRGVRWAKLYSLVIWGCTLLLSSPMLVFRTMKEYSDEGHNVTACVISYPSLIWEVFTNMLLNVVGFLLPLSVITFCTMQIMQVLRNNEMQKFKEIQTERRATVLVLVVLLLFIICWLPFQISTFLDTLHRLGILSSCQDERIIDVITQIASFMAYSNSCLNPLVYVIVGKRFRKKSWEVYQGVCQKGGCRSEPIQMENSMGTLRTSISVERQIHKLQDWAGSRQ

Kappa-type opioid receptor, sequence (P41145 whole entry): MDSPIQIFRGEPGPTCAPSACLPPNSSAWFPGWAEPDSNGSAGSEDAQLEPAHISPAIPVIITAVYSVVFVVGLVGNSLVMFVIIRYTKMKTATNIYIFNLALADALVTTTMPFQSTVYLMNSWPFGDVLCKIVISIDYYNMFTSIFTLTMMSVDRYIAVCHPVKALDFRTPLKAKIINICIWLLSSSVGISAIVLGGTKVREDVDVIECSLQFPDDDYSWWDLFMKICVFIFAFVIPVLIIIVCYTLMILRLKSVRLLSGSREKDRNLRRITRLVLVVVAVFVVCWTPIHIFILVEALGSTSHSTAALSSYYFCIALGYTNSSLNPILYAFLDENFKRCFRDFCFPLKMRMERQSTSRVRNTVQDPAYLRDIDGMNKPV
Mu-type opioid receptor, sequence (P35372 whole entry): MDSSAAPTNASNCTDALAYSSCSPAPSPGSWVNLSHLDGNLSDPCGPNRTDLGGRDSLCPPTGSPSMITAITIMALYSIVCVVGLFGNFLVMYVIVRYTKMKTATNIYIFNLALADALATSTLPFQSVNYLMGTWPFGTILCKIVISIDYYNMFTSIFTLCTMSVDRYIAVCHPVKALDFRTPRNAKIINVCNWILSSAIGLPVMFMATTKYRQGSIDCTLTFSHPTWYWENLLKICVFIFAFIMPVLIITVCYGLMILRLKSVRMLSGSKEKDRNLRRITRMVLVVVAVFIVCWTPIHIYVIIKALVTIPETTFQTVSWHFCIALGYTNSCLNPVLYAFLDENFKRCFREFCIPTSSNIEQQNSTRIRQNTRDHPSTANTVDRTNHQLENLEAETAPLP

O=C(Oc1ccccc1C(=O)O)c1ccccc1O [SALSALATE]
IC50 [1]: Not Active
IC50 [2]: Not Active
IC50 [3]: Not Active
Ki [3]: Not Active
IC50 [4]: Not Active
IC50 [5]: Not Active
IC50 (Mu-type opioid receptor): Not Active
IC50 (B2 bradykinin receptor): Not Active

O=C(O)c1cn(-c2ccc(F)cc2)c2cc(N3CCNCC3)c(F)cc2c1=O [SARAFLOXACIN]
IC50 [1]: Not Active
IC50 [2]: Not Active
IC50 [3]: Not Active
Ki [3]: Not Active
IC50 [4]: Not Active
IC50 [5]: Not Active
IC50 (Mu-type opioid receptor): Not Active
IC50 (B2 bradykinin receptor): Not Active

CC(C)NCC(O)c1ccc(NS(C)(=O)=O)cc1 (stereo unspecified) [SOTALOL]
IC50 [1]: Not Active
IC50 [2]: Not Active
IC50 [3]: Not Active
Ki [3]: Not Active
IC50 [4]: Not Active
IC50 [5]: Not Active
IC50 (Mu-type opioid receptor): Not Active
IC50 (B2 bradykinin receptor): Not Active

O.O.O.O.O.O.[Cl-].[Cl-].[Sr+2] [STRONTIUM CHLORIDE HEXAHYDRATE]
IC50 [1]: Not Active
IC50 [2]: Not Active
IC50 [3]: Not Active
Ki [3]: Not Active
IC50 [4]: Not Active
IC50 [5]: Not Active
IC50 (Mu-type opioid receptor): Not Active
IC50 (B2 bradykinin receptor): Not Active

O=C1C(CC[S+]([O-])c2ccccc2)C(=O)N(c2ccccc2)N1c1ccccc1 (stereo unspecified) [SULFINPYRAZONE]
IC50 [1]: Not Active
IC50 [2]: Not Active
IC50 [3]: Not Active
Ki [3]: Not Active
IC50 [4]: Not Active
IC50 [5]: Not Active
IC50 (Mu-type opioid receptor): Not Active
IC50 (B2 bradykinin receptor): Not Active

NC(=O)N1C(=O)/C(=C(\O)c2cccs2)c2cc(Cl)ccc21 [TENIDAP]
IC50 [1]: Not Active
IC50 [2]: Not Active
IC50 [3]: Not Active
Ki [3]: Not Active
IC50 [4]: Not Active
IC50 [5]: Not Active
IC50 (Mu-type opioid receptor): Not Active
IC50 (B2 bradykinin receptor): Not Active

COc1cc2nc(N3CCN(C(=O)C4CCCO4)CC3)nc(N)c2cc1OC (stereo unspecified) [TERAZOSIN]
IC50 [1]: Not Active
IC50 [2]: Not Active
IC50 [3]: Not Active
Ki [3]: Not Active
IC50 [4]: Not Active
pIC50 ([5]; read-out: IC50): 7.77
pKi ([5]; read-out: Ki): 8.08
IC50 (Mu-type opioid receptor): Not Active
IC50 (B2 bradykinin receptor): Not Active

CN(C/C=C/C#CC(C)(C)C)Cc1cccc2ccccc12 [TERBINAFINE]
IC50 [1]: Not Active
IC50 [2]: Not Active
IC50 [3]: Not Active
Ki [3]: Not Active
IC50 [4]: Not Active
IC50 [5]: Not Active
IC50 (Mu-type opioid receptor): Not Active
IC50 (B2 bradykinin receptor): Not Active

CCCCNc1ccc(C(=O)OCCN(C)C)cc1 [TETRACAINE]
IC50 [1]: Not Active
IC50 [2]: Not Active
IC50 [3]: Not Active
Ki [3]: Not Active
IC50 [4]: Not Active
IC50 [5]: Not Active
IC50 (Mu-type opioid receptor): Not Active
IC50 (B2 bradykinin receptor): Not Active

Cn1c(=O)c2nc[nH]c2n(C)c1=O.O [THEOPHYLLINE]
IC50 [1]: Not Active
IC50 [2]: Not Active
IC50 [3]: Not Active
Ki [3]: Not Active
IC50 [4]: Not Active
IC50 [5]: Not Active
IC50 (Mu-type opioid receptor): Not Active
IC50 (B2 bradykinin receptor): Not Active

CS(=O)(=O)c1ccc([C@@H](O)[C@@H](CO)NC(=O)C(Cl)Cl)cc1 [THIAMPHENICOL]
IC50 [1]: Not Active
IC50 [2]: Not Active
IC50 [3]: Not Active
Ki [3]: Not Active
IC50 [4]: Not Active
IC50 [5]: Not Active
IC50 (Mu-type opioid receptor): Not Active
IC50 (B2 bradykinin receptor): Not Active

CCN(CC)CCNC(=O)c1cc(S(C)(=O)=O)ccc1OC [TIAPRIDE]
IC50 [1]: Not Active
IC50 [2]: Not Active
IC50 [3]: Not Active
Ki [3]: Not Active
IC50 [4]: Not Active
IC50 [5]: Not Active
IC50 (Mu-type opioid receptor): Not Active
IC50 (B2 bradykinin receptor): Not Active

Clc1ccccc1CN1CCc2sccc2C1 [TICLOPIDINE]
IC50 [1]: Not Active
IC50 [2]: Not Active
IC50 [3]: Not Active
Ki [3]: Not Active
IC50 [4]: Not Active
IC50 [5]: Not Active
IC50 (Mu-type opioid receptor): Not Active
IC50 (B2 bradykinin receptor): Not Active

NC1CCN(c2nc3c(cc2F)c(=O)c(C(=O)O)cn3-c2ccc(F)cc2F)C1 (stereo unspecified) [TOSUFLOXACIN]
IC50 [1]: Not Active
IC50 [2]: Not Active
IC50 [3]: Not Active
Ki [3]: Not Active
IC50 [4]: Not Active
IC50 [5]: Not Active
IC50 (Mu-type opioid receptor): Not Active
IC50 (B2 bradykinin receptor): Not Active

CC(c1cc2ccccc2s1)N(O)C(N)=O (stereo unspecified) [ZILEUTON]
IC50 [1]: Not Active
IC50 [2]: Not Active
IC50 [3]: Not Active
Ki [3]: Not Active
IC50 [4]: Not Active
IC50 [5]: Not Active
IC50 (Mu-type opioid receptor): Not Active
IC50 (B2 bradykinin receptor): Not Active
